We go through 20 molecules from publication PMC7170901, “Design and efficient synthesis of pyrazoline and isoxazole bridged indole C-glycoside hybrids as potential anticancer agents” (Scientific Reports, 2020).

What is called viability is a read-out of living cells in per cent, often relative to untreated cells.

This data set has as its system MDA-MB-231 (human breast cancer) cell line. Briefly: MTT cell viability assay in MDA-MB-231 cells. It is filed as cell-based. Particulars: for viability at 10 µM / viability at 25 µM / viability at 50 µM: MDA-MB-231, 72 h; for viability at 10 µM / viability at 25 µM / viability at 50 µM / Cell Viability (%) ± SD: 72 h, MTT. As to the method: IC50 values were determined by plotting values of percent cell viability against concentration of each of these compounds. […] The experiments were performed in triplicates, n = 3 and ± SE value was calculated for each data point.
The human breast cancer cell line MDA-MB-231 were cultured in Dulbecco’s Modified Eagle’s Medium (DMEM) (Gibco, St. Louis, USA) supplemented with 10% heat inactivated FBS (Fetal Bovine Serum, Gibco, USA) and 1% penicillin-streptomycin (Gibco Canada) in humidified CO2 incubator at 37 °C. The cells were maintained as a monolayer in 100 mm culture plate. The cells used for each experiment were of less than 8 passage number. Sub culturing of cells was performed every third day, followed by trypsin EDTA treatment.
Cell viability assay was performed as per standard protocols. […] Ltd, India). In brief, this is a homogeneous, colorimetric method for determining the number of viable cells in proliferation, cytotoxicity or chemosensitivity assays. MTT is bio reduced by cells into a formazan product that is soluble in the tissue culture medium. […] The absorbance of the formazan product at 595 nm was measured directly from 96-well assay plates without additional processing using a multimode plate reader (Bio-Rad) (iMark, India), as absorbance is directly proportional to the number of viable cells in culture. The percentage of viable cells in each group is determined with respect to the untreated control cells.
In general terms: Formazan colour is commonly taken as a measure of viable cells.

Setting [1] is: Homo sapiens, MDA-MB-231, 10 µM, read-out: Cell Viability (%) ± SD.
The mark [2] stands for this setting: Homo sapiens, MDA-MB-231, 25 µM, read-out: Cell Viability (%) ± SD.
Setting [3] is: Homo sapiens, MDA-MB-231, 50 µM, read-out: Cell Viability (%) ± SD.

With `OC[C@H]1O[C@@H](Cc2cc(-c3c[nH]c4ccc(Cl)cc34)on2)[C@@H](O)[C@@H](O)[C@@H]1O` [Compound 44, (2 S,3 S,4 R,5 S,6 R)-2-((5-(5-chloro-1H-indol-3-yl)isoxazol-3-yl)methyl)-6-(hydroxymethyl) tetrahydro-2H-pyran-3,4,5-triol], the viability at 10 µM under setting [1] is 83.9 ± 4.08%. Besides, the viability at 25 µM under setting [2] was 82.9 ± 5.28%. The viability at 50 µM under setting [3] was found to be 81.7 ± 3.45%.
The corresponding values for `OC[C@H]1O[C@@H](Cc2cc(-c3c[nH]c4ccccc34)on2)[C@@H](O)[C@@H](O)[C@@H]1O` [Compound 41, (2 S,3 S,4 R,5 S,6 R)-2-((5-(1H-indol-3-yl)isoxazol-3-yl)methyl)-6-(hydroxymethyl) tetrahydro-2H-pyran-3,4,5-triol] are 89.2 ± 3.7%, 81.2 ± 5.17% and 74 ± 17.6%.
The corresponding values for `O=[N+]([O-])c1ccc2[nH]cc(C3CC(C[C@@H]4O[C@H](CO)[C@H](O)[C@H](O)[C@H]4O)=NN3)c2c1` (stereo partly shown) [Compound 26, (2 S,3 R,4 R,5 R,6 R)-2-((5-(5-nitro-1H-indol-3-yl)-4,5-dihydro-1H-pyrazol-3-yl)methyl)-6-(hydroxymethyl)tetrahydro-2H-pyran-3,4,5-triol] are 101 ± 9.67%, 98.25 ± 0.34% and 99.5 ± 1.88%.
On the same counts, the results for `OC[C@H]1O[C@@H](Cc2cc(-c3c[nH]c4ccc(Cl)cc34)on2)[C@H](O)[C@@H](O)[C@@H]1O` [Compound 36, (2 S,3 R,4 R,5 S,6 R)-2-((5-(5-chloro-1H-indol-3-yl)isoxazol-3-yl)methyl)-6-(hydroxymethyl) tetrahydro-2H-pyran-3,4,5-triol] are 97.8 ± 11.6%, 96.8 ± 11.6% and 99.3 ± 4.28%.
Regarding `O=[N+]([O-])c1ccc2[nH]cc(-c3cc(C[C@@H]4O[C@H](CO)[C@H](O)[C@H](O)[C@H]4O)no3)c2c1` [Compound 38, (2 R,3 R,4 R,5 R,6 S)-2-(hydroxymethyl)-6-((5-(5-nitro-1H-indol-3-yl)isoxazol-3-yl)methyl) tetrahydro-2H-pyran-3,4,5-triol], under setting [1], the viability at 10 µM worked out at 99.1 ± 5.63%. The viability at 25 µM under setting [2] turned out to be 94.5 ± 3.67%. Besides, under setting [3], the viability at 50 µM was determined as 94.9 ± 4.49%.
The corresponding values for `OC[C@H]1O[C@@H](CC2=NNC(c3c[nH]c4ccc(Cl)cc34)C2)[C@H](O)[C@@H](O)[C@@H]1O` (stereo partly shown) [Compound 24, (2 S,3 R,4 R,5 S,6 R)-2-((5-(5-chloro-1H-indol-3-yl)-4,5-dihydro-1H-pyrazol-3-yl)methyl)-6-(hydroxymethyl)tetrahydro-2H-pyran-3,4,5-triol] are 82.2 ± 3.5%, 77.5 ± 8.96% and 77.7 ± 2.56%.
On the same counts, the results for `O=C(/C=C/c1c[nH]c2ccc(Cl)cc12)C[C@@H]1O[C@H](CO)[C@H](O)[C@H](O)[C@H]1O` [Compound 16, (E)-4-(5-chloro-1H-indol-3-yl)-1-((2S,3R,4R,5R,6R)-3,4,5-trihydroxy-6-(hydroxylmethyl)tetrahydro-2H-pyran-2-yl)but-3-en-2-one] are 75 ± 14.3%, 89.6 ± 12.9% and 56.7 ± 17.8%.
For `CC1=CC(=O)c2ccccc2C1=O` [Menadione, menadione, reference compound], the viability at 20 µM (Homo sapiens, MDA-MB-231, MDA-MB-231, positive control at 20 µM, read-out: Cell Viability (%) ± SD) amounted to 20.8 ± 8.7%.
With `OC[C@H]1O[C@@H](Cc2cc(-c3c[nH]c4ccccc34)on2)[C@H](O)[C@@H](O)[C@@H]1O` [Compound 33, (2 S,3 R,4 R,5 S,6 R)-2-((5-(1H-indol-3-yl)isoxazol-3-yl)methyl)-6-(hydroxymethyl) tetrahydro-2H-pyran-3,4,5-triol], the viability at 10 µM under setting [1] amounted to 104 ± 12.7%. In addition, the viability at 25 µM under setting [2] was found to be 106 ± 7.4%. Besides, the viability at 50 µM under setting [3] turned out to be 92.6 ± 15.2%.
For the molecule `O=[N+]([O-])c1ccc2[nH]cc(-c3cc(C[C@@H]4O[C@H](CO)[C@@H](O)[C@H](O)[C@@H]4O)no3)c2c1` [Compound 42, (2 R,3 S,4 R,5 S,6 S)-2-(hydroxymethyl)-6-((5-(5-nitro-1H-indol-3-yl)isoxazol-3-yl)methyl) tetrahydro-2H-pyran-3,4,5-triol], the viability at 10 µM under setting [1] amounted to 92.6 ± 11.5%. For the same molecule, the viability at 25 µM under setting [2] was 93.4 ± 15.7%. In addition, the viability at 50 µM under setting [3] came out at 95.2 ± 13.6%.
On the same counts, the results for `OC[C@H]1O[C@@H](CC2=NNC(c3c[nH]c4ccc(Br)cc34)C2)[C@H](O)[C@@H](O)[C@H]1O` (stereo partly shown) [Compound 27, (2 S,3 R,4 R,5 R,6 R)-2-((5-(5-bromo-1H-indol-3-yl)-4,5-dihydro-1H-pyrazol-3-yl)methyl)-6-(hydroxymethyl)tetrahydro-2H-pyran-3,4,5-triol] are 90 ± 7.7%, 90.8 ± 7.09% and 97.7 ± 10.1%.
For the molecule `O=C(/C=C/c1c[nH]c2ccccc12)C[C@@H]1O[C@H](CO)[C@H](O)[C@H](O)[C@H]1O` [Compound 13, (E)-4-(1H-indol-3-yl)-1-((2S,3R,4R,5R,6R)-3,4,5-trihydroxy-6-(hydroxymethyl)tetrahydro-2H-pyran-2-yl)but-3-en-2-one], the viability at 10 µM under setting [1] came to 97.6 ± 2.25%. In addition, the viability at 25 µM under setting [2] amounted to 94.2 ± 1.96%. Further, the viability at 50 µM under setting [3] was found to be 84.2 ± 9.22%.
`O=C(/C=C/c1c[nH]c2ccc(Br)cc12)C[C@@H]1O[C@H](CO)[C@H](O)[C@H](O)[C@H]1O` [Compound 15, (E)-4-(5-bromo-1H-indol-3-yl)-1-((2S,3R,4R,5R,6R)-3,4,5-trihydroxy-6-(hydroxymethyl)tetrahydro-2H-pyran-2-yl)but-3-en-2-one]: the viability at 10 µM under setting [1] worked out at 125 ± 3.51%. The viability at 25 µM under setting [2] is 113 ± 23.9%. Moreover, the viability at 50 µM under setting [3] was found to be 67.5 ± 17.7%.
On the same counts, the results for `OC[C@H]1O[C@@H](CC2=NNC(c3c[nH]c4ccccc34)C2)[C@@H](O)[C@@H](O)[C@@H]1O` (stereo partly shown) [Compound 29, (2 S,3 S,4 R,5 S,6 R)-2-((5-(1H-indol-3-yl)-4,5-dihydro-1H-pyrazol-3-yl)methyl)-6-(hydroxy-methyl)tetrahydro-2H-pyran-3,4,5-triol] are 82.2 ± 7.65%, 76.6 ± 6.58% and 73.5 ± 8.45%.
The corresponding values for `OC[C@H]1O[C@@H](Cc2cc(-c3c[nH]c4ccc(Br)cc34)on2)[C@H](O)[C@@H](O)[C@H]1O` [Compound 39, (2 S,3 R,4 R,5 R,6 R)-2-((5-(5-bromo-1H-indol-3-yl)isoxazol-3-yl)methyl)-6-(hydroxymethyl) tetrahydro-2H-pyran-3,4,5-triol] are 120 ± 17.6%, 89.4 ± 5.32% and 90.3 ± 2.88%.
Consider `O=C(/C=C/c1c[nH]c2ccc([N+](=O)[O-])cc12)C[C@@H]1O[C@H](CO)[C@@H](O)[C@H](O)[C@H]1O` [Compound 18, (E)-4-(5-nitro-1H-indol-3-yl)-1-((2S,3R,4R,5S,6R)-3,4,5-trihydroxy-6-(hydroxylmethyl)tetrahydro-2H-pyran-2-yl) but-3-en-2-one], for which the viability at 10 µM under setting [1] came to 71.7 ± 28.4%. In addition, under setting [2], the viability at 25 µM worked out at 78.5 ± 6.73%. Further, the viability at 50 µM under setting [3] amounted to 69.8 ± 20.4%.
The corresponding values for `O=[N+]([O-])c1ccc2[nH]cc(C3CC(C[C@@H]4O[C@H](CO)[C@@H](O)[C@H](O)[C@@H]4O)=NN3)c2c1` (stereo partly shown) [Compound 30, (2 S,3 S,4 R,5 S,6 R)-2-((5-(5-nitro-1H-indol-3-yl)-4,5-dihydro-1H-pyrazol-3-yl)methyl)-6-(hydroxymethyl)tetrahydro-2H-pyran-3,4,5-triol] are 93.8 ± 5.85%, 92.1 ± 8% and 88 ± 1.1%.
Take “(E)-4-(1H-indol-3-yl)-1-((2S,3S,4R,5S,6R)-3,4,5-trihydroxy-6-(hydroxymethyl) tetrahydro-2H-pyran-2-yl) but-3-en-2-one [Compound 19]”: the “Cell Viability (%) ± SD” value is, setting by setting: (MDA-MB-231, 10 µM) 102.51 ± 10.39%; (MDA-MB-231, 25 µM) 89.20 ± 28.63%; (MDA-MB-231, 50 µM) 71.48 ± 6.24%.
On to `O=[N+]([O-])c1ccc2[nH]cc(C3CC(C[C@@H]4O[C@H](CO)[C@@H](O)[C@H](O)[C@H]4O)=NN3)c2c1` (stereo partly drawn) [Compound 22, (2R,3S,4R,5R,6S)-2-(hydroxymethyl)-6-((5-(5-nitro-1H-indol-3-yl)-4,5-dihydro-1H-pyrazol-3-yl)methyl)tetrahydro-2H-pyran-3,4,5-triol], for which the viability at 10 µM under setting [1] came out at 70.4 ± 13%. Also, under setting [2], the viability at 25 µM came out at 68.6 ± 11.1%. The viability at 50 µM under setting [3] worked out at 70.3 ± 6.17%.
Regarding `OC[C@H]1O[C@@H](CC2=NNC(c3c[nH]c4ccc(Br)cc34)C2)[C@@H](O)[C@@H](O)[C@@H]1O` (stereo partly shown) [Compound 31, (2 S,3 S,4 R,5 S,6 R)-2-((5-(5-bromo-1H-indol-3-yl)-4,5-dihydro-1H-pyrazol-3-yl)methyl)-6-(hydroxymethyl)tetrahydro-2H-pyran-3,4,5-triol], the viability at 10 µM under setting [1] came to 91.4 ± 3.62%. The viability at 25 µM under setting [2] was found to be 90.1 ± 6.77%. The viability at 50 µM under setting [3] came out at 87.6 ± 6.27%.
